# Measured values taken from US10265298B2, “Method of increasing the bioavailability of silybin” (Macau University of Science and Technology, priority 2017, dated 2019).
# Tests used:
# [1] = tested on: Caco-2 cells; experiment: Glucuronidation of silybin in Caco-2 cells (LC-MS peak area of silybin glucuronides); format: in vitro ADME, human; settings: silybin 10 μM, test compound 20 μM co-incubation
# Protocol: The analysis of silybin and total concentrations of glucuronides and sulfates was performed on an Agilent HP 1100 LC-MS system (Agilent, CA). A Waters ACQUITY UPLC® BEH C18 Column (1.7 μm, 2.1×50 mm, Waters Corp., Ireland) was used for detection with a C18 Security Guard cartridge (4×2.0 mm i.d., Phenomenex, Torrance, Calif.). Silybin A and silybin B were well separated using optimized gradient elution with methanol (mobile phase B) and 0.1% formic acid in water (mobile phase A) as mobile phase at a flow rate of 0.4 ml/min with a run time of 10 minutes. The gradient employed was as follows (time: mobile phase B percentage): 0 min: 25%, 6 minutes: 40%, 6.5 minutes: 25%.
# MS parameters including: capillary voltage, −4000 V; nebulizer pressure, 40 pounds per square inch (psi); drying gas, 9 liters per minute (L/min); drying gas temperature, 325° C.; fragment voltage, 35 volts; dwell time, 200 milliseconds (ms); scan mode, selective ion monitoring (SIM) with [M-H]− for silybin (mass-to-charge ratio (m/z) 481), mono-glucuronide (m/z 657), and NG (m/z 271), respectively. LC-MS data were obtained by Agilent ChemStation Software.
# Silybin is primarily metabolized to glucuronide (about 55%) and sulfate (about 28%) conjugates in human plasma after oral administration. To examine whether the co-incubation of flavonoids could affect the conjugation of silybin, the peak area of silybin glucuronides was measured by LC-MS (FIG. 6). Identification of glucuronides in the samples was based on their MS in-source fragmentations (m/z 657).
# [2] = biological target: MRP2 (Homo sapiens, UniProt Q92887); experiment: cell-based; settings: for efflux ratio of CDCFDA in the presence of inhibitor: dog, 180 min
# Protocol: (§1) Parental Madin-Darby canine kidney II (MDCKII), multi-drug resistance gene 1-Madin-Darby canine kidney II (MDR1-MDCKII), breast cancer resistance protein-Madin-Darby canine kidney II (BCRP-MDCKII), and multi-drug resistance protein 2-Madin-Darby canine kidney II (MRP2-MDCKII) cells were kindly provided by the Netherlands Cancer Institute (Amsterdam, Netherlands) and frozen at −80° C. The MDCKII cells were cultured at 37° C./5% CO2 in Dulbecco's modified Eagle's medium supplemented with 10% fetal bovine serum, 1% nonessential amino acids, and 2% penicillin-streptomycin. The cells were seeded on transwell inserts (Corning Inc.) at a density of 2.0×10^5 cells/cm^2 and grown for 4-5 days to form confluent monolayers.
# (§2) Bidirectional transport assays in human colorectal adenocarcinoma 2 (Caco-2) and Madin-Darby canine kidney II (MDCK II) was carried out by dosing substrates in assay buffer to either the apical chamber (A-to-B) or the basolateral chamber (B-to-A); cells were then incubated at 37° C. with shaking at 50 rotations per minute (rpm), and 100 μl samples were collected at 30, 60, 90, 120 and 180 minutes from the basolateral chamber to study the drug transport of AP to BL, or apical chamber to study the drug transport of BL to AP. Cell monolayers were then washed twice with ice-cold assay buffer and lysed with methanol on ice for 10 minutes. For inhibition studies, Caco-2 or MDCK II cell monolayers were pre-incubated with an inhibitor in both apical and basolateral chambers for 30 minutes, and bidirectional transport of 10 μM silybin was conducted in the absence (control) or presence of the inhibitor in both chambers. […] For fluorescence intensity detection, samples collected from AP or BL side were immediately detected in 96 well black plate by Microplate ultraviolet-visible spectroscopy (UV/VIS) spectrophotometer (TECAN infinite M200 PRO, Männedorf, Switzerland). In all cases, each determination was performed in triplicate.
# (§3) The apparent permeability coefficients (Papp) were calculated as Papp=dQ/dt×1/(C“0”A) where dQ/dt (mM/sec) is the rate of permeation of the drug across the cells, C0 (millimolar (mM)) is the donor compartment concentration at time zero and A (cm^2) is the area of the cell monolayer. C0 is obtained from analysis of the dosing solution at the start experiment. Efflux Ratio (ER)=Papp (B to A)/Papp (A to B), while Papp (B−A) is the Papp value measured in the B to A direction, and Papp (A−B) is the Papp value measured in the A to B direction. 1.5 Preparation of Rat Sandwich-Cultured Hepatocytes
# (§4) (*, P<0.05;**, P<0.01; ***, P<0.001 vs absence of any inhibitor. n=3).
# as §4
# [3] = biological target: T1, MDR1 (P-gp) (Homo sapiens, UniProt P08183); experiment: cell-based
# Protocol: as §1, §2, §3, §4, §4
# [4] = tested on: Caco-2 cell monolayers; experiment: Bidirectional transport across Caco-2 cell monolayers; settings: for lowest effective dosage for inhibiting efflux transport of silybin: silybin 10 μM; for PA-B: human, Caco-2, 180 min; for mean efflux ratio (PB-A/PA-B): silybin alone, no inhibitor
# Protocol: Human colorectal adenocarcinoma-2 (Caco-2) cells was obtained from American Type Culture Collection (Manassas, Va.) and frozen at −80° C. For transport study, cells were cultured at 37° C./5% CO2 in Dulbecco's modified Eagle's medium supplemented with 10% fetal bovine serum, 1% nonessential amino acids, and 1% penicillin-streptomycin. […] The culture medium was changed 24 hours after seeding to remove cell debris and dead cells; after which the medium was changed on alternate days. Monolayers were used for transport assays between 21 and 23 days for Caco-2 cells. Prior to transport study, cell monolayers were certified based on internal criteria on transepithelial electrical resistance (TEER) values.
# Prior to transport study, cell monolayers were certified based on our internal criteria on transepithelial electrical resistance (TEER) values, and only monolayers that met the acceptance criteria (transepithelial electrical resistance >500 Ω·cm^2 for Caco-2 cells and >200 Ω·cm^2 for MDCK cells) were selected for transport studies.
# as §2, §3
# [5] = biological target: T1, MDR1 (P-gp); experiment: Transport of silybin across MDCKII-MDR1 cells; settings: for net efflux ratio: absence of any inhibitor
# Protocol: as §1, with “monolayers. […]” for “monolayers.”
# Bidirectional transport assays in human colorectal adenocarcinoma 2 (Caco-2) and Madin-Darby canine kidney II (MDCK II) was carried out by dosing substrates in assay buffer to either the apical chamber (A-to-B) or the basolateral chamber (B-to-A); cells were then incubated at 37° C. with shaking at 50 rotations per minute (rpm), and 100 μl samples were collected at 30, 60, 90, 120 and 180 minutes from the basolateral chamber to study the drug transport of AP to BL, or apical chamber to study the drug transport of BL to AP. […] For fluorescence intensity detection, samples collected from AP or BL side were immediately detected in 96 well black plate by Microplate ultraviolet-visible spectroscopy (UV/VIS) spectrophotometer (TECAN infinite M200 PRO, Männedorf, Switzerland). […]
# The apparent permeability coefficients (Papp) were calculated as Papp=dQ/dt×1/(C“0”A) where dQ/dt (mM/sec) is the rate of permeation of the drug across the cells, C0 (millimolar (mM)) is the donor compartment concentration at time zero and A (cm^2) is the area of the cell monolayer. […] Efflux Ratio (ER)=Papp (B to A)/Papp (A to B), while Papp (B−A) is the Papp value measured in the B to A direction, and Papp (A−B) is the Papp value measured in the A to B direction. […]
# Chain of MRP2 (Q92887 whole entry): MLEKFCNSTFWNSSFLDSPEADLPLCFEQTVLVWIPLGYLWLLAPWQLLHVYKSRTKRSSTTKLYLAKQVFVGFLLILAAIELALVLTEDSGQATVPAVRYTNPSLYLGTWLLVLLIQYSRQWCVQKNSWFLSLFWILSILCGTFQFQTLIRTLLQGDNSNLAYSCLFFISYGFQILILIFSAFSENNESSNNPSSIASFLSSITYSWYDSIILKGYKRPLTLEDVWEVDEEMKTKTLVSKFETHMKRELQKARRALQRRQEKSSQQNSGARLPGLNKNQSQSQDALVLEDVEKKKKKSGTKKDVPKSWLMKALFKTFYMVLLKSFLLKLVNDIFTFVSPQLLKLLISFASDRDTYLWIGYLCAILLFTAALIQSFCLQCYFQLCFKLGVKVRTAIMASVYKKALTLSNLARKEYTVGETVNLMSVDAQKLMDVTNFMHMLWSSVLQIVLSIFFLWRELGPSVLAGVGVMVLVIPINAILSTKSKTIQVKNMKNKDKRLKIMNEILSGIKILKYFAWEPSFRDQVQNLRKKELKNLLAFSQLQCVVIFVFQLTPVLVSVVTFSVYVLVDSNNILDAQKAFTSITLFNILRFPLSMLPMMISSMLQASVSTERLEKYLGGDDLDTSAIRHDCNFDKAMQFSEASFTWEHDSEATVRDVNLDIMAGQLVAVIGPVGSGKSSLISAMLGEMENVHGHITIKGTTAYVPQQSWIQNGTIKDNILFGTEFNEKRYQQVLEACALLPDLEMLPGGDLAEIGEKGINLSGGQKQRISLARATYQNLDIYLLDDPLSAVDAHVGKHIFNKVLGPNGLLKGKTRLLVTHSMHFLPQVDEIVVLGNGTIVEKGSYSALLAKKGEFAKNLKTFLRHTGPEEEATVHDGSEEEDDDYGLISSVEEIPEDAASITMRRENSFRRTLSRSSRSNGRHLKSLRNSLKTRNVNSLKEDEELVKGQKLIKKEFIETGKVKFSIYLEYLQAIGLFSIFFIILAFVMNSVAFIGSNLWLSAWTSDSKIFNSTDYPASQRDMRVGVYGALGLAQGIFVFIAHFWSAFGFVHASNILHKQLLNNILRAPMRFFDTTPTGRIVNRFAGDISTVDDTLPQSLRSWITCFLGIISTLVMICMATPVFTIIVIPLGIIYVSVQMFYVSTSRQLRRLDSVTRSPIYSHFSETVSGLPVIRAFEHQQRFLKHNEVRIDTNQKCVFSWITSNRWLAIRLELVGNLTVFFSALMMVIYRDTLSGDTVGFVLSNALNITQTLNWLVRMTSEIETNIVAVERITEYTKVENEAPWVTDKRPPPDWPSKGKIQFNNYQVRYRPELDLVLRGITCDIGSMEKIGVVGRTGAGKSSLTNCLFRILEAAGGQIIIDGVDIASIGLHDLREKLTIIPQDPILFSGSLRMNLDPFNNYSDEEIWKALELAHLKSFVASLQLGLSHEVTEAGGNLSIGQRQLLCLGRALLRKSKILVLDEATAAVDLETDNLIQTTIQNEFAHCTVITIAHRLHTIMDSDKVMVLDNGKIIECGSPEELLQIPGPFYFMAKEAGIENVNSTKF
# T1 sequence (P08183 whole entry): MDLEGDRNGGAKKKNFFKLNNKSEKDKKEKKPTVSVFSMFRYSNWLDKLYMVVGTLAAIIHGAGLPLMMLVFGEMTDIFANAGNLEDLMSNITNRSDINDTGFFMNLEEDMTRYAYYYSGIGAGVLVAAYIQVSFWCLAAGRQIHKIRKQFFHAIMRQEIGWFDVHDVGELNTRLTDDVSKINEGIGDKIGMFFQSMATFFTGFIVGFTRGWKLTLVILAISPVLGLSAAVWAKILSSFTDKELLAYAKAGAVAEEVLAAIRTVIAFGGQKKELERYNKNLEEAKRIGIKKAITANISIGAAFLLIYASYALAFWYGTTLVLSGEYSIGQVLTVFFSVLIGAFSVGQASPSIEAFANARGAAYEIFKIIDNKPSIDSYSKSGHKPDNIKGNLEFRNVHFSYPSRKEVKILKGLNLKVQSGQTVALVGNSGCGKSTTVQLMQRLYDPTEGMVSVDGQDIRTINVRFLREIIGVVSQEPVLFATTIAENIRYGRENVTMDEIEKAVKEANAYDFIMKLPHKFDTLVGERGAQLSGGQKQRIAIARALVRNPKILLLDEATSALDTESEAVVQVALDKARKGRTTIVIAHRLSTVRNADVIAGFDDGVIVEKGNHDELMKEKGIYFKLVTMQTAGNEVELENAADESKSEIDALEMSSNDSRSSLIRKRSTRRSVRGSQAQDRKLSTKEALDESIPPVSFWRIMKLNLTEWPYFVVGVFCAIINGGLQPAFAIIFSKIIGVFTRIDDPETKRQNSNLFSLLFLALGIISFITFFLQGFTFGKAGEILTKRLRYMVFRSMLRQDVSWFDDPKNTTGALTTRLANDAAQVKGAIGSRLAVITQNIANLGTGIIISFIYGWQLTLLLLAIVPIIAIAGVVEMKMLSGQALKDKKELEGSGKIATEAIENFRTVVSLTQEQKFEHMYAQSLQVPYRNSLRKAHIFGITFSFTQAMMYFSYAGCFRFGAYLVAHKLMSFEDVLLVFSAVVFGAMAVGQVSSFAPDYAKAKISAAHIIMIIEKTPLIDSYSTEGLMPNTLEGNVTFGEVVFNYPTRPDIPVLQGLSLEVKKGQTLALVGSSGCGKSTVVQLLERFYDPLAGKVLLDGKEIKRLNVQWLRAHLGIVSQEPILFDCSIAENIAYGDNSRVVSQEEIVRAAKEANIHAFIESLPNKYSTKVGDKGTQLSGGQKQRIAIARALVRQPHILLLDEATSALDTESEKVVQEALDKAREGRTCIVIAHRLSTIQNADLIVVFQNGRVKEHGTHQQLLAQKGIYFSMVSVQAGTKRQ
Structure (SMILES),effect on glucuronide metabolites / glucuronide conjugation of silybin [1],IC50 [2],efflux ratio of CDCFDA in the presence of inhibitor [2],IC50 [3],lowest effective dosage for inhibiting efflux transport of silybin [4],net efflux ratio [5],PA-B [4],mean efflux ratio (PB-A/PA-B) [4],also measured
O=c1cc(-c2ccccc2)oc2cc(O)c(O)c(O)c12 [baicalein],almost undetected,21.2 µM,1.46,20.6 µM,0.5 µM,–,–,–,"effect on efflux of silybin ([4]; 5 μM baicalein, silybin at 40 μM): did not affect the efflux of silybin; effect on efflux of silybin ([4]; 5 μM baicalein, silybin concentration below 30 μM): significantly inhibited the efflux of silybin"
COc1cc([C@H]2Oc3cc([C@H]4Oc5cc(O)cc(O)c5C(=O)[C@@H]4O)ccc3O[C@@H]2CO)ccc1O [silybin A],–,–,–,–,–,1.39,0.47±0.03×10^−6 cm/s,5.05,–
COc1cc([C@@H]2Oc3cc([C@H]4Oc5cc(O)cc(O)c5C(=O)[C@@H]4O)ccc3O[C@H]2CO)ccc1O [silybin B],–,–,–,–,–,1.20,0.45±0.02×10^−6 cm/s,4.61,–
COc1cc(C2Oc3cc([C@H]4Oc5cc(O)cc(O)c5C(=O)[C@@H]4O)ccc3OC2CO)ccc1O (some centres unmarked) [silybin],–,–,–,–,–,–,–,–,"MDR1 (P-gp) substrate status ([5]; dog, MDCK-MDR1, 180 min, 10 µM): is not a substrate for MDR1 (P-gp) efflux transporter"
COc1ccc(-c2cc(=O)c3c(OC)c(OC)c(OC)c(OC)c3o2)cc1 [tangeretin],did not significantly inhibit the conjugation,8.84 µM,1.54,6.88 µM,0.05 µM,–,–,–,"effect on efflux of silybin ([4]; 0.5 μM tangeretin, silybin 2.5 to 40 μM): Significant inhibitory effects"
